For assay [1], the target named is T1, BRAF-GTP-KRAS-G12C complex (Homo sapiens, UniProt P01116+P62937, G12C).
T1 construct: 50 nM of His6-KRas G12C-GTP (1-169); 500 nM of tagless CypA (1-165)
Description: KRAS-BRAF complex disruption through competition with CYPA-compound by TR-FRET. The note with it: biochemical BRAF-KRAS G12C-GTP disruption assay EC50, with CYPA. The method, boiled down: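 His6-KRAS G12C-GTP (1-169, 50 nM) with tagless CypA (1-165, 500 nM) was incubated with compound for 3 h at room temperature in pH 7.3 Hepes/NaCl/MgCl2 buffer containing GST-BRAF RBD. Anti-His Eu (10 nM) and anti-GST APC (50 nM) were then added for 1.5 h, and the 665/615 nm TR-FRET ratio was read. EC50 from 4-parameter fit; for specificity, wild-type KRAS replaced G12C, and CypA was omitted to test presenter dependence.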
(TR-FRET usually uses a lanthanide donor and a delayed reading to cut background.)

For the next assay, the target named is cyclophilin A (CYPA) (Homo sapiens, UniProt P62937). The assay can be described thus: CYPA-compound binary complex formation by SPR. As to conditions: read-out: CYPA Binding Affinity. The method, boiled down:
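CypA-Avi captured on a Biotin CAPture chip (4 μg/ml), reference flow cell subtracted. Compounds injected as 10-point 2-fold dilutions from 50 μM in HBS-P+ pH7.4 with 2% DMSO; 60 s association and 60 s dissociation, solvent-corrected. Affinity obtained by steady-state fitting.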
Background: Surface plasmon resonance follows binding to a sensor surface in real time, without labels.

For a further assay, the system named is pERK in H358 cells. Description: pERK inhibition in H358 cells. The note with it: 4 hours treatment, read-out: Cellular pERK inhibition. It is filed as cell-based, human. The gist of the method: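 Human lung cancer H358 cells in RPMI/10% FBS were exposed to compound or DMSO for 4 h. Fixed and permeabilized cells were stained overnight at 4 C with anti-phospho-ERK1/2 (Thr202/Tyr204). Near-infrared imaging read the pERK signal at 800 nm, with DRAQ5 at 700 nm.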

With `CC1COC(=O)C2CCCN(N2)C(=O)C(NC(=O)C(C(C)C)N(C)C(=O)C2CN(C(=O)CCl)C2)Cc2cc(O)cc(c2)-c2ccc3c(c2)N(C1)CC3(C)CCC#N` (mixture of isomers) [Compound 225], in assay [1], the EC50 was at most 0.5 µM. Further, on cyclophilin A (CYPA), the Kd was at most 5 µM. For the same molecule, in the assay on pERK in H358 cells, the IC50 lay within 1 to 10 µM.
In the same order, the values of `CCN1CCC(=O)N2C[C@H](C)COC(=O)[C@@H]3CCCN(N3)C(=O)[C@@H](NC(=O)[C@H](C(C)C)N(C)C(=O)C3CN(C(=O)CCl)C3)Cc3cc(O)cc(c3)-c3ccc1c2c3` [Compound 186] are above 5 µM, 5 to 15 µM and above 10 µM.
The molecule `CC(C)C(C(=O)NC1Cc2cc(O)cc(c2)-c2ccc3c(C(C)(C)C#N)cn(c3c2)CC(C)(C)COC(=O)C2CCCN(N2)C1=O)N(C)C(=O)C1CCN(C(=O)CCl)C1` (stereo not drawn) [Compound 33] gave a concentration giving a half-maximal response (EC50) in assay [1] of at most 0.5 µM. For the same molecule, the Kd at cyclophilin A (CYPA) fell in the range of 5 to 15 µM. Further, in the assay with pERK in H358 cells, the IC50 is at most 1 µM.
In the same order, the values of `C=CC(=O)N1CCC(C(=O)N(C)C(C(=O)NC2Cc3cc(O)cc(c3)-c3ccc4c(C(C)(C)C#N)cn(c4c3)CC(C)(C)COC(=O)C3CCCN(N3)C2=O)C(C)C)C1` (stereo not drawn) [Compound 89] are 0.5 to 5 µM, 5 to 15 µM and 1 to 10 µM.
The matching figures for `C=CC(=O)N1CCC1C(=O)N(C)C(C(=O)NC1Cc2cc(O)cc(c2)-c2ccc3c(C(F)F)nn(c3c2)CC(C)COC(=O)C2CCCN(N2)C1=O)C(C)C` (stereo not drawn) [Compound 204]: above 5 µM, 5 to 15 µM and 1 to 10 µM.
In the same order, the values of `CNC(=O)c1cc2ccc3cc2n1CC(C)COC(=O)C1CCCN(N1)C(=O)C(NC(=O)C(C(C)C)N(C)C(=O)C1CN(C(=O)CCl)C1)Cc1cc(O)cc-3c1` (stereo not drawn) [Compound 115] are at most 0.5 µM, at most 5 µM and above 10 µM.
`CC1COC(=O)[C@@H]2CCCN(N2)C(=O)[C@@H](NC(=O)[C@H](C(C)C)N(C)C(=O)C2CN(C(=O)CCl)C2)Cc2cc(O)cc(c2)-c2ccc3c(c2)N(CCO3)C1` (single isomer, unassigned) [Compound 184] showed an EC50 in assay [1] of 0.5 to 5 µM. Further, the Kd at cyclophilin A (CYPA) is at most 5 µM. For the same molecule, the IC50 in the assay with pERK in H358 cells is above 10 µM.
`CC(C)[C@@H](C(=O)N[C@H]1Cc2cc(O)cc(c2)-c2ccc3c(C(C)(C)C#N)cn(c3c2)CC(C)(C)COC(=O)[C@@H]2CCCN(N2)C1=O)N(C)C(=O)C1(F)CN(C(=O)[C@@H](C)Cl)C1` [Compound 35] gave a 50% effective concentration (EC50) in assay [1] above 5 µM. For the same molecule, the Kd at cyclophilin A (CYPA) is 5 to 15 µM. In addition, the IC50 in the assay with pERK in H358 cells is above 10 µM.
In the same order, the values of `CC(C)[C@@H](C(=O)N[C@H]1Cc2cc(O)cc(c2)-c2ccc3c(C#N)ccc(c3c2)OCCCOC(=O)[C@@H]2CCCN(N2)C1=O)N(C)C(=O)C1CN(C(=O)CCl)C1` [Compound 185] are 0.5 to 5 µM, at most 5 µM and above 10 µM.
In assay [1], `CON=C(C)c1cn2c3cc(ccc13)-c1cc(O)cc(c1)CC(NC(=O)C(C(C)C)N(C)C(=O)C1CN(C(=O)CCl)C1)C(=O)N1CCCC(N1)C(=O)OCC(C)C2` (stereo not drawn) [Compound 73] registered a concentration for a half-maximal effect (EC50) of at most 0.5 µM. The Kd on cyclophilin A (CYPA) was at most 5 µM. Also, the IC50 in the assay with pERK in H358 cells lay in the range of 1 to 10 µM.
Consider `CC1COC(=O)C2CCCN(N2)C(=O)C(NC(=O)C(C(C)C)N(C)C(=O)C2CN(C(=O)CCl)C2)Cc2cc(O)cc(c2)-c2ccc3c4c(n(c3c2)C1)CCC4C#N` (mixture of isomers) [Compound 74], for which the EC50 in assay [1] is at most 0.5 µM. Also, on cyclophilin A (CYPA), the Kd is at most 5 µM. Also, the IC50 in the assay with pERK in H358 cells lay in the range of 1 to 10 µM.
The matching figures for `Cc1nc2ccc3cc2n1C[C@H](C)COC(=O)[C@@H]1CCCN(N1)C(=O)[C@@H](NC(=O)[C@H](C(C)C)N(C)C(=O)C1CN(C(=O)CCl)C1)Cc1cc(O)cc-3c1` [Compound 147]: at most 0.5 µM, at most 5 µM and above 10 µM.
In the same order, the values of `C=CC(=O)N1CCCC1C(=O)N(C)C(C(=O)NC1Cc2cc(O)cc(c2)-c2ccc3c(C(F)F)nn(c3c2)CC(C)COC(=O)C2CCCN(N2)C1=O)C(C)C` (stereo not drawn) [Compound 205] are above 5 µM, above 15 µM and above 10 µM.
Turning to `CCN1C(=O)CCN2C[C@H](C)COC(=O)[C@@H]3CCCN(N3)C(=O)[C@@H](NC(=O)[C@H](C(C)C)N(C)C(=O)C3CN(C(=O)CCl)C3)Cc3cc(O)cc(c3)-c3ccc1c2c3` [Compound 188], the concentration giving a half-maximal response (EC50) in assay [1] was above 5 µM. The Kd at cyclophilin A (CYPA) was at most 5 µM. The IC50 in the assay with pERK in H358 cells is above 10 µM.
In the same order, the values of `C=CC(=O)N1CCN([C@H](C(=O)N[C@H]2Cc3cc(O)cc(c3)-c3ccc4c(C)cn(c4c3)CC(C)(C)COC(=O)[C@@H]3CCCN(N3)C2=O)C(C)C)C1=O` [Compound 97] are at most 0.5 µM, above 15 µM and above 10 µM.
In the same order, the values of `CC(C)[C@@H](C(=O)N[C@H]1Cc2cc(O)cc(n2)-c2ccc3c(C(C)(C)C#N)cn(c3c2)C[C@H](C)COC(=O)[C@@H]2CCCN(N2)C1=O)N(C)C(=O)C1CN(C(=O)CCl)C1` [Compound 59] are above 5 µM, above 15 µM and above 10 µM.
In the same order, the values of `C=CC(=O)N1CCN(C(=O)N(C)[C@H](C(=O)N[C@H]2Cc3cc(O)cc(c3)-c3ccc4c(C(C)(C)C#N)cn(c4c3)CC(C)(C)COC(=O)[C@@H]3CCCN(N3)C2=O)C(C)C)CC1` [Compound 344] are 0.5 to 5 µM, 5 to 15 µM and 1 to 10 µM.
On to `CC(C)[C@@H](C(=O)N[C@H]1Cc2cc(O)cc(c2)-c2ccc3c(C(C)(C)C#N)cn(c3c2)C[C@H](C)COC(=O)[C@@H]2CCCN(N2)C1=O)N1CC[C@@H](N(C)C(=O)CCl)C1=O` [Compound 30], for which, in assay [1], the EC50 fell in the range of 0.5 to 5 µM. Besides, at cyclophilin A (CYPA), the Kd was at most 5 µM. For the same molecule, the IC50 in the assay with pERK in H358 cells was in the range of 1 to 10 µM.
The matching figures for `CC(C)[C@@H](C(=O)N[C@H]1Cc2cc(O)cc(c2)-c2cc3c(ccn3CC(C)(C)COC(=O)[C@@H]3CCCN(N3)C1=O)cn2)N(C)C(=O)C1CN(C(=O)CCl)C1` [Compound 178]: 0.5 to 5 µM, 5 to 15 µM and above 10 µM.
Turning to `CC(C)[C@@H](C(=O)N[C@H]1Cc2cc(O)cc(c2)-c2ccc3c(S(C)(=O)=O)cn(c3c2)CCCOC(=O)[C@@H]2CCCN(N2)C1=O)N(C)C(=O)C1CN(C(=O)CCl)C1` [Compound 102], the concentration for a half-maximal effect (EC50) in assay [1] is at most 0.5 µM. The Kd at cyclophilin A (CYPA) is 5 to 15 µM. Besides, the IC50 with pERK in H358 cells was above 10 µM.
Molecule `CC(C)[C@@H](C(=O)N[C@H]1Cc2cc(O)cc(c2)-c2ccc3c(C4(C#N)CCC4)cn(c3c2)C[C@H](C)COC(=O)[C@@H]2CCCN(N2)C1=O)N(C)C(=O)C1CN(C(=O)CCl)C1` [Compound 81] returned an EC50 in assay [1] of at most 0.5 µM. For the same molecule, the Kd on cyclophilin A (CYPA) fell in the range of 5 to 15 µM. Also, in the assay on pERK in H358 cells, the IC50 was at most 1 µM.
As to `CC(C)C(C(=O)NC1Cc2cc(O)cc(c2)-c2ccc3c(C(C)(C)C#N)cn(c3c2)CC(Cl)COC(=O)C2CCCN(N2)C1=O)N(C)C(=O)C1CN(C(=O)CCl)C1` (single isomer, unassigned) [Compound 41], the half-maximal effective concentration (EC50) in assay [1] was at most 0.5 µM. On cyclophilin A (CYPA), the Kd was at most 5 µM. Besides, the IC50 in the assay with pERK in H358 cells fell in the range of 1 to 10 µM.
In the same order, the values of `C=CC(=O)N1CC2(CCN(C(C(=O)NC3Cc4cc(O)cc(c4)-c4ccc5c(C(C)(C)C#N)cn(c5c4)CC(C)(C)COC(=O)C4CCCN(N4)C3=O)C(C)C)C2=O)C1` (stereo not drawn) [Compound 42] are 0.5 to 5 µM, 5 to 15 µM and 1 to 10 µM.
`CC(C)[C@@H](C(=O)N[C@H]1Cc2cc(O)cc(c2)-c2ccc3c(C#N)cn(c3n2)CC(C)(C)COC(=O)[C@@H]2CCCN(N2)C1=O)N(C)C(=O)C1CN(C(=O)CCl)C1` [Compound 176]: the EC50 in assay [1] was at most 0.5 µM. Also, on cyclophilin A (CYPA), the Kd was 5 to 15 µM. Moreover, the IC50 in the assay with pERK in H358 cells was 1 to 10 µM.
The matching figures for `C=CC(=O)N1CCC(C(=O)N(C)C(C(=O)NC2Cc3cc(O)cc(c3)-c3ccc4c(c3)N(CC(C)(C)COC(=O)C3CCCN(N3)C2=O)CC4(C)COC)C2CCCC2)C1` (stereo not drawn) [Compound 398]: 0.5 to 5 µM, at most 5 µM and at most 1 µM.
In the same order, the values of `C=CC(=O)N1CCC1C(=O)N(C)C(C(=O)NC1Cc2cc(O)cc(c2)-c2ccc3c(C(F)F)nn(c3c2)CC(C)COC(=O)C2CCCN(N2)C1=O)C(C)C` (stereo not drawn) [Compound 203] are above 5 µM, above 15 µM and above 10 µM.
The molecule `C=CC(=O)N1CCC(C(=O)N(C)C(C(=O)NC2Cc3cc(O)cc(c3)-c3ccc4c(c3)c(cn4C(C)(C)C#N)CC(C)(C)COC(=O)C3CCCN(N3)C2=O)C2CCCC2)C1` (stereo not drawn) [Compound 395] gave a 50% effective concentration (EC50) in assay [1] of 0.5 to 5 µM. The Kd at cyclophilin A (CYPA) is at most 5 µM. The IC50 in the assay with pERK in H358 cells was at most 1 µM.
`CC(C)C1COC(=O)[C@@H]2CCCN(N2)C(=O)[C@@H](NC(=O)[C@H](C(C)C)N(C)C(=O)C2CN(C(=O)CCl)C2)Cc2cc(O)cc(c2)-c2ccc3c(C(C)(C)C#N)cn(c3c2)C1` (stereo partly drawn) [Compound 246] returned an EC50 in assay [1] of at most 0.5 µM. Moreover, the Kd at cyclophilin A (CYPA) was in the range of 5 to 15 µM. Further, the IC50 with pERK in H358 cells was in the range of 1 to 10 µM.

A word on the EC50: it is the concentration at which the effect is half-maximal. A low value points to a more potent agent.
